In patent US10859504B2, “Degradable cationic surfactants and use thereof in enhancing chemiluminescence” (Siemens Healthcare Diagnostics Inc., priority 2013, dated 2020):

How the values were obtained:
[1] = Chemiluminescence measurement of anti-TSH antibody conjugate of acridinium ester 3a with cationic surfactants; conditions: for Observed enhancement (fold) of chemiluminescence: no surfactant control = 1; for Observed acceleration of emission kinetics (time to >90% emission): without surfactant 57.5 seconds; for accelerated emission kinetics: as shown in Table 1b, from 57.5 seconds without surfactant
Method: (§1) To study the impact of degradable cationic surfactants on acridinium ester chemiluminescence, two exemplary cationic surfactants containing cleavable linkages (FIG. 2A) were selected. The synthetic schemes for the two surfactants are illustrated in FIGS. 3-4 and described in Examples 1 and 2 above. Both surfactants were dissolved in Reagent 1 (0.1 M nitric acid containing 0.5% hydrogen peroxide) at five times their reported CMCs in water. CTAC dissolved in Reagent 2 (0.25 M NaOH) was used as the control surfactant. The two carbonate and amide cationic surfactants (FIG. 2A) were dissolved in Reagent 1 to preserve stability, especially during long term storage (Stjerndahl and Holmberg, J. Colloid and Interface Sci., 2005, 291, 570-576). Three acridinium esters (FIG. 2B, compounds 3a, 3b and 3c) were used to make protein conjugates of an anti-TSH antibody (TS=thyroid stimulating hormone) as described in the literature (Natrajan et al, Org. Biomol. Chem., 2011, 9, 5092-5103; Natrajan et al, Org. Biomol. Chem., 2012, 10, 3432-3447). The conjugates contained approximately 5 labels. The conjugates were stored at 4° C. in buffer and chemiluminescence from each conjugate was measured in the absence of surfactant and in the presence of CTAC as well as cationic surfactants 1 and 2 (Tables 1-3, FIGS. 5-7). The ability of each surfactant to (a) increase total light output and (b) accelerate emission kinetics was evaluated over a period of 80 days.
(§2) Chemiluminescence of anti-TSH antibody conjugates of acridinium esters 3a, 3b and 3c (FIG. 2B) was measured on an Autolumat LB953 Plus luininometer from Behold Technologies. The conjugates, ˜2 mg/mL containing approximately five labels, were serially diluted 10^5-fold for chemiluminescence measurements in an aqueous buffer of 10 mM disodium hydrogen phosphate, 0.15 M NaCl and 8 mM sodium azide and 0.015 mM bovine serum albumin (BSA), pH 8.0. A 0.010 mL volume of each diluted acridinium ester sample was dispensed into the bottom of a cuvette. Cuvettes were placed into the primed LB953 and the chemiluminescence reaction was initiated with the sequential addition of 0.3 mL of Reagent 1, a solution of 0.5% hydrogen peroxide in 0.1 M nitric acid followed by the addition of 0.3 mL of Reagent 2, a solution of 0.25 M sodium hydroxide. For measurements in the presence of CTAC, the surfactant (7 mM) was included in Reagent 2. For measurements in the presence of the cationic amide surfactant 1 or the cationic carbonate surfactant 2, each surfactant was dissolved in Reagent 1 at 3.2 mM (surfactant 1) and 2.15 mM (surfactant 2). Each chemiluminescence flash curve was measured in 240 intervals of 0.5 second (120 seconds total time). Each chemiluminescence reaction was carried out a minimum of three times, averaged and converted to a percentage of the chemiluminescence accumulated up to each time interval. The output from the luminometer instrument was expressed as R.L.U.s (Relative Light Units).

[2] = Stability of surfactants in Reagent 1 (0.5% peroxide in 0.1 M nitric acid) on storage; assay type: physicochemical; conditions: for stability in Reagent 1: 0.5% peroxide in 0.1 M nitric acid, 80 days at room temperature, little loss in ability to enhance chemiluminescence; for ability to accelerate light emission after storage: 80 days of storage at room temperature
Method: as §1
For example, for all three acridinium ester conjugates, in comparison to the no surfactant control which was assigned a relative light yield of one, total light yield was increased approximately 2.5-4-fold for 3a, 3-5-fold for 3b and 3-4.5-fold for 3c (Tables 1a, 2a and 3a) for CTAC as well as surfactants 1 and 2. […] Even at day 80, the fold of increased light emission using surfactant 2 remains to be about 80% (2.8/3.5) of CTAC. Similarly, the fold of increased light emission using Surfactant 1 is about 89% (3.1/3.5) on day 1, and 74% (2.6/3.5) on day 80 compared to CTAC.
Furthermore, both surfactants 1 and 2 were very effective in accelerating light emission from the acridinium ester antibody conjugates (Tables 1b, 2b and 3b, FIGS. 5-7). […] In the presence of CTAC or the two cationic surfactants 1 and 2, emission times were compressed to <3 seconds for the conjugates of all three acridinium ester labels.

[3] = Chemiluminescence measurement of anti-TSH antibody conjugate of acridinium ester 3c with cationic surfactants; conditions: for Observed enhancement (fold) of chemiluminescence: no surfactant control = 1; for Observed acceleration of emission kinetics (time to >90% emission): without surfactant 62.5 seconds
Method: as §1, §2

[4] = Chemiluminescence measurement of anti-TSH antibody conjugate of acridinium ester 3b with cationic surfactants; conditions: for Observed enhancement (fold) of chemiluminescence: no surfactant control = 1; for Observed acceleration of emission kinetics (time to >90% emission): without surfactant 49.5 seconds
Method: as §1, §2

[5] = cited from earlier work

| Structure (SMILES) | Observed enhancement (fold) of chemiluminescence ([1]; Day 1) | Observed acceleration of emission kinetics (time to >90% emission) ([1]; Day 1) | Observed enhancement (fold) of chemiluminescence ([1]; Day 10) | Observed acceleration of emission kinetics (time to >90% emission) ([1]; Day 10) | Observed enhancement (fold) of chemiluminescence ([1]; Day 20) | Observed acceleration of emission kinetics (time to >90% emission) ([1]; Day 20) | Observed enhancement (fold) of chemiluminescence ([1]; Day 40) | Observed acceleration of emission kinetics (time to >90% emission) ([1]; Day 40) | Observed enhancement (fold) of chemiluminescence ([1]; Day 80) | Observed acceleration of emission kinetics (time to >90% emission) ([1]; Day 80) | accelerated emission kinetics [1] | Observed enhancement (fold) of chemiluminescence ([3]; Day 1) | Observed acceleration of emission kinetics (time to >90% emission) ([3]; Day 1) | Observed enhancement (fold) of chemiluminescence ([3]; Day 10) | Observed acceleration of emission kinetics (time to >90% emission) ([3]; Day 10) | Observed enhancement (fold) of chemiluminescence ([3]; Day 20) | Observed acceleration of emission kinetics (time to >90% emission) ([3]; Day 20) | Observed enhancement (fold) of chemiluminescence ([3]; Day 40) | Observed acceleration of emission kinetics (time to >90% emission) ([3]; Day 40) | Observed enhancement (fold) of chemiluminescence ([3]; Day 80) | also measured |
| --- | --- | --- | --- | --- | --- | --- | --- | --- | --- | --- | --- | --- | --- | --- | --- | --- | --- | --- | --- | --- | --- |
| CCCCCCCCCCCCOC(=O)OCCCC[N+](C)(C)C [surfactant 2] | 3.5 fold | 1.0 s | 3.6 fold | 1.0 s | 3.7 fold | 1.0 s | 3.2 fold | 1.0 s | 2.8 fold | 1.0 s | 1.0 s | 4.2 fold | 1.0 s | 4.2 fold | 1.0 s | 4.4 fold | 1.5 s | 3.7 fold | 1.5 s | 3.5 fold | fold of increased light emission compared to CTAC ([1]; day 80): about 80%; effectiveness in enhancing chemiluminescence relative to CTAC ([1]; within at least the first 10 days (Table 1a)): as effective as CTAC; stability in Reagent 1 [2]: quite stable; ability to accelerate light emission after storage [2]: did not diminish; Observed acceleration of emission kinetics (time to >90% emission) ([3]; Day 80): 1.5 s; Observed enhancement (fold) of chemiluminescence ([4]; Day 1): 5.0 fold; Observed acceleration of emission kinetics (time to >90% emission) ([4]; Day 1): 0.5 s; Observed enhancement (fold) of chemiluminescence ([4]; Day 10): 5.2 fold; Observed acceleration of emission kinetics (time to >90% emission) ([4]; Day 10): 0.5 s; Observed enhancement (fold) of chemiluminescence ([4]; Day 20): 5.2 fold; Observed acceleration of emission kinetics (time to >90% emission) ([4]; Day 20): 0.5 s; Observed enhancement (fold) of chemiluminescence ([4]; Day 40): 3.9 fold; Observed acceleration of emission kinetics (time to >90% emission) ([4]; Day 40): 0.5 s; Observed enhancement (fold) of chemiluminescence ([4]; Day 80): 4.1 fold; Observed acceleration of emission kinetics (time to >90% emission) ([4]; Day 80): 0.5 s |
| CCCCCCCCCCCCCCCC(=O)NCC[N+](C)(C)C [surfactant 1] | 3.1 fold | 1.0 s | 3.1 fold | 1.0 s | 3.4 fold | 1.0 s | 2.6 fold | 1.0 s | 2.6 fold | 1.0 s | 1.0 s | 3.8 fold | 2.0 s | 3.8 fold | 2.0 s | 4.1 fold | 2.0 s | 3.2 fold | 2.0 s | 3.0 fold | fold of increased light emission compared to CTAC ([1]; day 1): about 89%; fold of increased light emission compared to CTAC ([1]; day 80): ~74%; stability in Reagent 1 [2]: quite stable; ability to accelerate light emission after storage [2]: did not diminish; Observed acceleration of emission kinetics (time to >90% emission) ([3]; Day 80): 2.0 s; Observed enhancement (fold) of chemiluminescence ([4]; Day 1): 4.5 fold; Observed acceleration of emission kinetics (time to >90% emission) ([4]; Day 1): 1.0 s; Observed enhancement (fold) of chemiluminescence ([4]; Day 10): 4.4 fold; Observed acceleration of emission kinetics (time to >90% emission) ([4]; Day 10): 0.5 s; Observed enhancement (fold) of chemiluminescence ([4]; Day 20): 4.7 fold; Observed acceleration of emission kinetics (time to >90% emission) ([4]; Day 20): 0.5 s; Observed enhancement (fold) of chemiluminescence ([4]; Day 40): 3.4 fold; Observed acceleration of emission kinetics (time to >90% emission) ([4]; Day 40): 0.5 s; Observed enhancement (fold) of chemiluminescence ([4]; Day 80): 3.4 fold; Observed acceleration of emission kinetics (time to >90% emission) ([4]; Day 80): 0.5 s |
| CCCCCCCCCCCCCCCC[N+](C)(C)C.[Cl-] [CTAC, cetyltrimethylammonium chloride, reference compound] | 3.5 fold | 1.5 s | 3.6 fold | 1.5 s | 4.0 fold | 1.5 s | 3.4 fold | 1.5 s | 3.5 fold | 1.5 s | 1.5 s | 4.1 fold | 2.0 s | 4.3 fold | 2.0 s | 4.6 fold | 2.5 s | 3.9 fold | 2.5 s | 4.0 fold | Observed acceleration of emission kinetics (time to >90% emission) ([3]; Day 80): 2.5 s; Observed enhancement (fold) of chemiluminescence ([4]; Day 1): 5.3 fold; Observed acceleration of emission kinetics (time to >90% emission) ([4]; Day 1): 1.0 s; Observed enhancement (fold) of chemiluminescence ([4]; Day 10): 5.2 fold; Observed acceleration of emission kinetics (time to >90% emission) ([4]; Day 10): 1.0 s; Observed enhancement (fold) of chemiluminescence ([4]; Day 20): 5.5 fold; Observed acceleration of emission kinetics (time to >90% emission) ([4]; Day 20): 1.0 s; Observed enhancement (fold) of chemiluminescence ([4]; Day 40): 4.2 fold; Observed acceleration of emission kinetics (time to >90% emission) ([4]; Day 40): 1.0 s; Observed enhancement (fold) of chemiluminescence ([4]; Day 80): 4.6 fold; Observed acceleration of emission kinetics (time to >90% emission) ([4]; Day 80): 1.0 s; increase of overall light output ([5]; acridinium ester labels and their conjugates): 3-4 fold; emission time of the labels ([5]; compressed from approximately 60 s, 7 mM CTAC in 0.25 M sodium hydroxide): < 5 s |
